Results taken from paper PMC7938888, “Antidepressant drugs act by directly binding to TRKB neurotrophin receptors” (Cell, 2021).

Legend:
[1] = system: TRKB:PLC-γ1 interaction; assay: TRKB:PLC-γ1 interaction ELISA in MG87 cells expressing TRKB; type: cell-based, mouse; conditions: cholesterol 20 μM/15 min
Experimental: The cell line NIH 3T3 (mouse fibroblasts) stably transfected to express TRKB or TRKA (MG87.TRKB or MG87.TRKA, respectively) were used for in vitro assays ([Antila et al., 2014]), N2A and HEK293T cells were used to overexpress GFP-tagged TRKB for binding assays. The cells were maintained at 5% CO2, 37°C in Dulbecco’s Modified Eagle’s Medium (DMEM, containing 10% fetal calf serum, 1% penicillin/streptomycin, 1% L-glutamine, and, in the case of MG87.TRKB cells, with […] of G418). The cell lines used in the present study were not authenticated or genotyped for sex.
The TRKB:pY (phosphorylated TRKB), TRKB:PLC-γ1, PLC-γ1:pTRKB.Y816 interactions and were determined by ELISA, based on the general method described in literature ([Antila et al., 2014]; [Fred et al., 2019]), with minor adjustments. Briefly, white 96-well plates (OptiPlate 96F-HB, Perkin Elmer) were coated with capturing anti-TRKB or PLC-γ1 antibody (1:1000) in carbonate buffer (pH = 9.8) overnight (ON) at 4°C. Following a blocking step with 2%BSA in TBS-T (2 h, RT), samples were incubated ON at 4°C. […] Finally, the chemiluminescent signal generated by the reaction with ECL was analyzed in a plate reader (Varioskan Flash, Thermo Scientific).

[2] = system: TRKA:PLC-γ1 coupling; assay: TRKA:PLC-γ1 interaction ELISA in MG87 cells expressing TRKA; type: cell-based, mouse

**Q.** How did the “interaction of TRKB with PLC-γ1” value [1] turn out when `CC(C)CCC[C@@H](C)[C@H]1CC[C@H]2[C@@H]3CC=C4C[C@@H](O)CC[C@]4(C)[C@H]3CC[C@]12C` [CHOL, cholesterol] was run?
**A.** promoted the interaction of TRKB

**Q.** And the “cholesterol-induced TRKA:PLC-γ1 coupling” value [2]?
**A.** Lack of effect
